{"source": "patent US6914045B2", "about": "“Glycopeptide antibiotics” (Wyeth Holdings Corporation, priority 2001, dated 2005)", "assay_in_all_cases": "in vitro antibacterial evaluation, MIC by broth dilution", "assay_type_in_all_cases": "cell-based", "key": {"Enterococcus sp.": {"test_system": "Enterococcus sp.", "conditions": "broth dilution, 18 hours at 35° C.", "method_in_brief": "(§1)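 Step 1: dilute antibiotic across 64-0.06 μg/mL in Muller-Hinton II […]. Step 2: inoculate at 5×10^5 CFU/mL.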"}, "Staphylococcus sp.": {"test_system": "Staphylococcus sp.", "conditions": "broth dilution, 18 hours at 35° C.; for MIC Staphylococcus aureus (GC 1131): strain GC 1131", "method_in_brief": "as §1"}, "Streptococcus sp.": {"test_system": "Streptococcus sp.", "conditions": "broth dilution, 18 hours at 35° C.", "method_in_brief": "as §1"}, "Escherichia coli": {"test_system": "Escherichia coli", "conditions": "18 hours at 35° C."}}}
{"compound": "CC(C1CCCCC1)C1NC(=O)CNC(=O)C(CO)NC(=O)C(C(O)C2CNC(=N)N2C2OC(CO)C(O)C(O)C2O)NC(=O)C(C(O)C2CNC(=N)N2)NC(=O)C(Cc2ccc(OC3OC(CO)C(OC4OC5COC(c6ccccc6)OC5C(O)C4O)C(O)C3O)cc2)NC1=O", "note": "(stereo not shown) [Example 201]", "values": [{"measurement": "MIC Enterococcus avium (GC 4558)", "setting": "Enterococcus sp.", "value": 1, "unit": "µg/mL"}, {"measurement": "MIC Enterococcus faecalis (ATCC 29212)", "setting": "Enterococcus sp.", "value": 1, "unit": "µg/mL"}, {"measurement": "MIC Enterococcus faecalis (GC 2242)", "setting": "Enterococcus sp.", "value": 1, "unit": "µg/mL"}, {"measurement": "MIC Enterococcus faecalis (GC 2691)", "setting": "Enterococcus sp.", "value": 1, "unit": "µg/mL"}, {"measurement": "MIC Enterococcus faecalis (GC 3059)", "setting": "Enterococcus sp.", "value": 1, "unit": "µg/mL"}, {"measurement": "MIC Enterococcus faecalis (GC 4552)", "setting": "Enterococcus sp.", "value": 1, "unit": "µg/mL"}, {"measurement": "MIC Enterococcus faecalis (GC 4553)", "setting": "Enterococcus sp.", "value": 1, "unit": "µg/mL"}, {"measurement": "MIC Enterococcus faecalis (GC 4554)", "setting": "Enterococcus sp.", "value": 1, "unit": "µg/mL"}, {"measurement": "MIC Enterococcus faecalis (GC 6189)", "setting": "Enterococcus sp.", "value": 1, "unit": "µg/mL"}, {"measurement": "MIC Enterococcus faecium (GC 2243)", "setting": "Enterococcus sp.", "value": 1, "unit": "µg/mL"}, {"measurement": "MIC Enterococcus faecium (GC 4556)", "setting": "Enterococcus sp.", "value": 1, "unit": "µg/mL"}, {"measurement": "MIC Enterococcus faecium (GC 4557)", "setting": "Enterococcus sp.", "value": 0.5, "unit": "µg/mL"}, {"measurement": "MIC Enterococcus faecalis (ATCC 29212)", "setting": "Enterococcus sp.; inoculum 5×10^5 CFU/mL, strain ATCC 29212", "value": 1, "unit": "µg/mL"}, {"measurement": "MIC Enterococcus faecalis (GC 2242)", "setting": "Enterococcus sp.; inoculum 5×10^5 CFU/mL, strain GC 2242", "value": 1, "unit": "µg/mL"}, {"measurement": "MIC Enterococcus faecium (GC 2243)", "setting": "Enterococcus sp.; inoculum 5×10^5 CFU/mL, strain GC 2243", "value": 1, "unit": "µg/mL"}, {"measurement": "MIC Enterococcus faecalis (GC 2691)", "setting": "Enterococcus sp.; inoculum 5×10^5 CFU/mL, strain GC 2691", "value": 1, "unit": "µg/mL"}, {"measurement": "MIC Enterococcus faecalis (GC 3059)", "setting": "Enterococcus sp.; inoculum 5×10^5 CFU/mL, strain GC 3059", "value": 1, "unit": "µg/mL"}, {"measurement": "MIC Enterococcus faecalis (GC 4552)", "setting": "Enterococcus sp.; inoculum 5×10^5 CFU/mL, strain GC 4552", "value": 1, "unit": "µg/mL"}, {"measurement": "MIC Enterococcus faecalis (GC 4553)", "setting": "Enterococcus sp.; inoculum 5×10^5 CFU/mL, strain GC 4553", "value": 1, "unit": "µg/mL"}, {"measurement": "MIC Enterococcus faecalis (GC 4554)", "setting": "Enterococcus sp.; inoculum 5×10^5 CFU/mL, strain GC 4554", "value": 1, "unit": "µg/mL"}, {"measurement": "MIC Enterococcus faecium (GC 4556)", "setting": "Enterococcus sp.; inoculum 5×10^5 CFU/mL, strain GC 4556", "value": 1, "unit": "µg/mL"}, {"measurement": "MIC Enterococcus faecium (GC 4557)", "setting": "Enterococcus sp.; inoculum 5×10^5 CFU/mL, strain GC 4557", "value": 0.5, "unit": "µg/mL"}, {"measurement": "MIC Enterococcus avium (GC 4558)", "setting": "Enterococcus sp.; inoculum 5×10^5 CFU/mL, strain GC 4558", "value": 1, "unit": "µg/mL"}, {"measurement": "MIC Enterococcus faecalis (GC 6189)", "setting": "Enterococcus sp.; inoculum 5×10^5 CFU/mL, strain GC 6189", "value": 1, "unit": "µg/mL"}, {"measurement": "MIC Staphylococcus aureus (GC 1131)", "setting": "Staphylococcus sp.; inoculum 5×10^5 CFU/mL", "value": 0.25, "unit": "µg/mL"}, {"measurement": "MIC Staphylococcus aureus (ATCC 29213)", "setting": "Staphylococcus sp.; strain ATCC 29213", "value": 0.25, "unit": "µg/mL"}, {"measurement": "MIC Staphylococcus aureus (GC 1131)", "setting": "Staphylococcus sp.", "value": 0.25, "unit": "µg/mL"}, {"measurement": "MIC Staphylococcus aureus (GC 3051)", "setting": "Staphylococcus sp.; strain GC 3051", "value": 0.5, "unit": "µg/mL"}, {"measurement": "MIC Staphylococcus aureus (GC 3053)", "setting": "Staphylococcus sp.; strain GC 3053", "value": 0.5, "unit": "µg/mL"}, {"measurement": "MIC Staphylococcus aureus (GC 4541)", "setting": "Staphylococcus sp.; strain GC 4541", "value": 0.5, "unit": "µg/mL"}, {"measurement": "MIC Staphylococcus aureus (GC 4542)", "setting": "Staphylococcus sp.; strain GC 4542", "value": 0.25, "unit": "µg/mL"}, {"measurement": "MIC Staphylococcus aureus-SMITH (GC 4543)", "setting": "Staphylococcus sp.; strain GC 4543", "value": 0.5, "unit": "µg/mL"}, {"measurement": "MIC Staphylococcus aureus (GC 4544)", "setting": "Staphylococcus sp.; strain GC 4544", "value": 0.25, "unit": "µg/mL"}, {"measurement": "MIC Staphylococcus aureus (GC 4545)", "setting": "Staphylococcus sp.; strain GC 4545", "value": 0.25, "unit": "µg/mL"}, {"measurement": "MIC Staphylococcus haemolyticus (GC 4546)", "setting": "Staphylococcus sp.; strain GC 4546", "value": 0.25, "unit": "µg/mL"}, {"measurement": "MIC Coagulase Negative Staphylococcus (GC 4547)", "setting": "Staphylococcus sp.; strain GC 4547", "value": 0.25, "unit": "µg/mL"}, {"measurement": "MIC Coagulase Negative Staphylococcus (GC 4548)", "setting": "Staphylococcus sp.; strain GC 4548", "value": 0.25, "unit": "µg/mL"}, {"measurement": "MIC Coagulase Negative Staphylococcus (GC 4549)", "setting": "Staphylococcus sp.; strain GC 4549", "value": 0.25, "unit": "µg/mL"}, {"measurement": "MIC Coagulase Negative Staphylococcus (GC 4551)", "setting": "Staphylococcus sp.; strain GC 4551", "value": 0.25, "unit": "µg/mL"}, {"measurement": "MIC Streptococcus agalactiae (GC 4564)", "setting": "Streptococcus sp.", "value": "<0.12", "unit": "µg/mL"}, {"measurement": "MIC Streptococcus pneumoniae (ATCC 6301)", "setting": "Streptococcus sp.", "value": "<0.12", "unit": "µg/mL"}, {"measurement": "MIC Streptococcus pneumoniae (GC 1894)", "setting": "Streptococcus sp.", "value": "<0.12", "unit": "µg/mL"}, {"measurement": "MIC Streptococcus pneumoniae (GC 4565)", "setting": "Streptococcus sp.", "value": "<0.12", "unit": "µg/mL"}, {"measurement": "MIC Streptococcus pyogenes (GC 4563)", "setting": "Streptococcus sp.", "value": "<0.12", "unit": "µg/mL"}, {"measurement": "MIC Streptococcus pneumoniae (ATCC 6301)", "setting": "Streptococcus sp.; inoculum 5×10^5 CFU/mL, strain ATCC 6301", "value": "<0.12", "unit": "µg/mL"}, {"measurement": "MIC Streptococcus pneumoniae (GC 1894)", "setting": "Streptococcus sp.; inoculum 5×10^5 CFU/mL, strain GC 1894", "value": "<0.12", "unit": "µg/mL"}, {"measurement": "MIC Streptococcus pyogenes (GC 4563)", "setting": "Streptococcus sp.; inoculum 5×10^5 CFU/mL, strain GC 4563", "value": "<0.12", "unit": "µg/mL"}, {"measurement": "MIC Streptococcus agalactiae (GC 4564)", "setting": "Streptococcus sp.; inoculum 5×10^5 CFU/mL, strain GC 4564", "value": "<0.12", "unit": "µg/mL"}, {"measurement": "MIC Streptococcus pneumoniae (GC 4565)", "setting": "Streptococcus sp.; inoculum 5×10^5 CFU/mL, strain GC 4565", "value": "<0.12", "unit": "µg/mL"}, {"measurement": "MIC Escherichia coli (ATCC 25922)", "setting": "Escherichia coli", "value": 16, "unit": "µg/mL"}, {"measurement": "MIC Escherichia coli (GC 4559)", "setting": "Escherichia coli", "value": 16, "unit": "µg/mL"}, {"measurement": "MIC Escherichia coli (GC 4560)", "setting": "Escherichia coli", "value": 0.25, "unit": "µg/mL"}]}
